Key:
Experiment in all cases: relative viability (nuclei count vs DMSO), 5 days (fraction); higher = more cells survive
GSK-J4 + Tozasertib = compound: CCOC(=O)CCNc1cc(N2CCc3ccccc3CC2)nc(-c2ccccn2)n1 [GSK-J4] + Cc1cc(Nc2cc(N3CCN(C)CC3)nc(Sc3ccc(NC(=O)C4CC4)cc3)n2)n[nH]1 [Tozasertib] (partner 0.1 µM)
Method in brief: (§1)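 A single step with final 0.05% Triton X-100, 1% formaldehyde and 1 ug/ml Hoechst fixed the cells and stained nuclei 5 days after treatment. Lung cancer cell lines in 1536-well plates had been treated by pin tool the day after seeding with one drug alone or a fixed anchor-drug dose plus five library-drug doses (not always all listed) in √10 steps, and nuclei were counted on 4× images. Relative viability is the ratio of nuclei in treated wells to nuclei in vehicle wells, taken as the median of duplicate plates.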

AZ3146 + Navitoclax = compound: CN1CCC(CC1)OC2=CC(=C(C=C2)NC3=NC=C4C(=N3)N(C(=O)N4C)C5CCCC5)OC [AZ3146] + CC1(C)CCC(c2ccc(Cl)cc2)=C(CN2CCN(c3ccc(C(=O)NS(=O)(=O)c4ccc(N[C@H](CCN5CCOCC5)CSc5ccccc5)c(S(=O)(=O)C(F)(F)F)c4)cc3)CC2)C1 [Navitoclax] (partner 0.5 µM)
Method in brief: as §1

AZ3146 + Pemetrexed = compound: CN1CCC(CC1)OC2=CC(=C(C=C2)NC3=NC=C4C(=N3)N(C(=O)N4C)C5CCCC5)OC [AZ3146] + Nc1nc2[nH]cc(CCc3ccc(C(=O)N[C@@H](CCC(=O)O)C(=O)O)cc3)c2c(=O)[nH]1 [Pemetrexed] (partner 0.2 µM)
Method in brief: as §1

AZ3146 + Crizotinib = compound: CN1CCC(CC1)OC2=CC(=C(C=C2)NC3=NC=C4C(=N3)N(C(=O)N4C)C5CCCC5)OC [AZ3146] + C[C@@H](Oc1cc(-c2cnn(C3CCNCC3)c2)cnc1N)c1c(Cl)ccc(F)c1Cl [Crizotinib] (partner 1 µM)
Method in brief: as §1

In the case of NCI-H1395, the relative viability (GSK-J4 + Tozasertib; first compound 0.5 µM) is reported as 0.806, the relative viability (GSK-J4 + Tozasertib; first compound 1.581 µM) is reported as 0.864 and the relative viability (GSK-J4 + Tozasertib; first compound 5 µM) is reported as 0.728. For the same cell line, the relative viability (GSK-J4 + Tozasertib; first compound 15.81 µM) was 0.687, the relative viability (GSK-J4 + Tozasertib; first compound 50 µM) was 0.614 and the relative viability (AZ3146 + Navitoclax; first compound 0.08 µM) was 1.21. It also gave a relative viability (AZ3146 + Navitoclax; first compound 0.253 µM) of 0.924, a relative viability (AZ3146 + Navitoclax; first compound 0.8 µM) of 0.985 and a relative viability (AZ3146 + Navitoclax; first compound 2.53 µM) of 1.09. For the same cell line, the relative viability (AZ3146 + Navitoclax; first compound 8 µM) was 1.18, the relative viability (AZ3146 + Pemetrexed; first compound 0.08 µM) was 0.783 and the relative viability (AZ3146 + Pemetrexed; first compound 0.253 µM) was 0.746. It also gave a relative viability (AZ3146 + Pemetrexed; first compound 2.53 µM) of 0.91 and a relative viability (AZ3146 + Pemetrexed; first compound 8 µM) of 0.661.

In the case of SK-LU-1, the relative viability (GSK-J4 + Tozasertib; first compound 0.5 µM) is reported as 0.306, the relative viability (GSK-J4 + Tozasertib; first compound 1.581 µM) is reported as 0.28 and the relative viability (GSK-J4 + Tozasertib; first compound 5 µM) is reported as 0.289. For the same cell line, the relative viability (GSK-J4 + Tozasertib; first compound 15.81 µM) was 0.326, the relative viability (GSK-J4 + Tozasertib; first compound 50 µM) was 0.276 and the relative viability (AZ3146 + Navitoclax; first compound 0.08 µM) was 0.914. For the same cell line, the relative viability (AZ3146 + Navitoclax; first compound 0.253 µM) was 0.702, the relative viability (AZ3146 + Navitoclax; first compound 0.8 µM) was 0.793 and the relative viability (AZ3146 + Navitoclax; first compound 2.53 µM) was 0.926. It also gave a relative viability (AZ3146 + Navitoclax; first compound 8 µM) of 0.576, a relative viability (AZ3146 + Crizotinib; first compound 0.08 µM) of 1.1 and a relative viability (AZ3146 + Crizotinib; first compound 0.253 µM) of 1.11. It also gave a relative viability (AZ3146 + Crizotinib; first compound 0.8 µM) of 1.03, a relative viability (AZ3146 + Crizotinib; first compound 2.53 µM) of 0.985 and a relative viability (AZ3146 + Crizotinib; first compound 8 µM) of 0.471. For the same cell line, the relative viability (AZ3146 + Pemetrexed; first compound 0.08 µM) was 0.921, the relative viability (AZ3146 + Pemetrexed; first compound 0.253 µM) was 1.03 and the relative viability (AZ3146 + Pemetrexed; first compound 0.8 µM) was 0.961. It also gave a relative viability (AZ3146 + Pemetrexed; first compound 2.53 µM) of 1.06 and a relative viability (AZ3146 + Pemetrexed; first compound 8 µM) of 0.879.

NCI-H1299 showed a relative viability (AZ3146 + Navitoclax; first compound 0.08 µM) of 1.02, a relative viability (AZ3146 + Navitoclax; first compound 0.253 µM) of 1.02 and a relative viability (AZ3146 + Navitoclax; first compound 0.8 µM) of 1.06. It also gave a relative viability (AZ3146 + Navitoclax; first compound 2.53 µM) of 1, a relative viability (AZ3146 + Navitoclax; first compound 8 µM) of 1.01 and a relative viability (AZ3146 + Crizotinib; first compound 0.08 µM) of 0.964. It also gave a relative viability (AZ3146 + Crizotinib; first compound 0.253 µM) of 0.961, a relative viability (AZ3146 + Crizotinib; first compound 0.8 µM) of 0.952 and a relative viability (AZ3146 + Crizotinib; first compound 2.53 µM) of 0.636. It also gave a relative viability (AZ3146 + Crizotinib; first compound 8 µM) of 0.511.

NCI-H1563 was tested, and the relative viability (AZ3146 + Crizotinib; first compound 0.08 µM) was 0.874, the relative viability (AZ3146 + Crizotinib; first compound 0.253 µM) was 0.896 and the relative viability (AZ3146 + Crizotinib; first compound 0.8 µM) was 0.954. It also gave a relative viability (AZ3146 + Crizotinib; first compound 2.53 µM) of 0.802, a relative viability (AZ3146 + Crizotinib; first compound 8 µM) of 0.777 and a relative viability (AZ3146 + Pemetrexed; first compound 0.08 µM) of 0.673. For the same cell line, the relative viability (AZ3146 + Pemetrexed; first compound 0.253 µM) was 0.645, the relative viability (AZ3146 + Pemetrexed; first compound 0.8 µM) was 0.717 and the relative viability (AZ3146 + Pemetrexed; first compound 2.53 µM) was 0.797. For the same cell line, the relative viability (AZ3146 + Pemetrexed; first compound 8 µM) was 0.825.

With HOP-62 the relative viability (GSK-J4 + Tozasertib; first compound 0.5 µM) was 0.344, the relative viability (GSK-J4 + Tozasertib; first compound 1.581 µM) was 0.335 and the relative viability (GSK-J4 + Tozasertib; first compound 5 µM) was 0.358. It also gave a relative viability (GSK-J4 + Tozasertib; first compound 15.81 µM) of 0.339, a relative viability (GSK-J4 + Tozasertib; first compound 50 µM) of 0.24 and a relative viability (AZ3146 + Navitoclax; first compound 0.08 µM) of 1.08. For the same cell line, the relative viability (AZ3146 + Navitoclax; first compound 0.253 µM) was 1.05, the relative viability (AZ3146 + Navitoclax; first compound 0.8 µM) was 0.938 and the relative viability (AZ3146 + Navitoclax; first compound 2.53 µM) was 1.13. It also gave a relative viability (AZ3146 + Navitoclax; first compound 8 µM) of 0.913, a relative viability (AZ3146 + Crizotinib; first compound 0.08 µM) of 0.946 and a relative viability (AZ3146 + Crizotinib; first compound 0.253 µM) of 0.955. For the same cell line, the relative viability (AZ3146 + Crizotinib; first compound 0.8 µM) was 0.917, the relative viability (AZ3146 + Crizotinib; first compound 2.53 µM) was 1.09 and the relative viability (AZ3146 + Crizotinib; first compound 8 µM) was 0.601. It also gave a relative viability (AZ3146 + Pemetrexed; first compound 0.08 µM) of 0.242, a relative viability (AZ3146 + Pemetrexed; first compound 0.253 µM) of 0.328 and a relative viability (AZ3146 + Pemetrexed; first compound 0.8 µM) of 0.339. It also gave a relative viability (AZ3146 + Pemetrexed; first compound 2.53 µM) of 0.305 and a relative viability (AZ3146 + Pemetrexed; first compound 8 µM) of 0.365.

For NCI-H1651, the relative viability (GSK-J4 + Tozasertib; first compound 0.5 µM) was 0.674, the relative viability (GSK-J4 + Tozasertib; first compound 1.581 µM) was 0.623 and the relative viability (GSK-J4 + Tozasertib; first compound 5 µM) was 0.807. It also gave a relative viability (GSK-J4 + Tozasertib; first compound 15.81 µM) of 0.569, a relative viability (GSK-J4 + Tozasertib; first compound 50 µM) of 0.567 and a relative viability (AZ3146 + Navitoclax; first compound 0.08 µM) of 1.03. It also gave a relative viability (AZ3146 + Navitoclax; first compound 0.253 µM) of 1.07, a relative viability (AZ3146 + Navitoclax; first compound 0.8 µM) of 1 and a relative viability (AZ3146 + Navitoclax; first compound 2.53 µM) of 0.995. The relative viability (AZ3146 + Navitoclax; first compound 8 µM) was 1.1, the relative viability (AZ3146 + Crizotinib; first compound 0.08 µM) was 0.671 and the relative viability (AZ3146 + Crizotinib; first compound 0.253 µM) was 0.811. It also gave a relative viability (AZ3146 + Crizotinib; first compound 0.8 µM) of 0.912, a relative viability (AZ3146 + Crizotinib; first compound 2.53 µM) of 0.844 and a relative viability (AZ3146 + Crizotinib; first compound 8 µM) of 0.871. It also gave a relative viability (AZ3146 + Pemetrexed; first compound 0.08 µM) of 0.58, a relative viability (AZ3146 + Pemetrexed; first compound 0.253 µM) of 0.579 and a relative viability (AZ3146 + Pemetrexed; first compound 0.8 µM) of 0.463. For the same cell line, the relative viability (AZ3146 + Pemetrexed; first compound 2.53 µM) was 0.569 and the relative viability (AZ3146 + Pemetrexed; first compound 8 µM) was 0.595.

Work on HCC-366 yielded a relative viability (GSK-J4 + Tozasertib; first compound 0.5 µM) of 0.138, a relative viability (GSK-J4 + Tozasertib; first compound 1.581 µM) of 0.0869 and a relative viability (GSK-J4 + Tozasertib; first compound 15.81 µM) of 0.083. It also gave a relative viability (GSK-J4 + Tozasertib; first compound 50 µM) of 0.0821, a relative viability (AZ3146 + Navitoclax; first compound 0.08 µM) of 1.01 and a relative viability (AZ3146 + Navitoclax; first compound 0.253 µM) of 0.958. It also gave a relative viability (AZ3146 + Navitoclax; first compound 0.8 µM) of 1.06, a relative viability (AZ3146 + Navitoclax; first compound 2.53 µM) of 1.16 and a relative viability (AZ3146 + Navitoclax; first compound 8 µM) of 1.14. It also gave a relative viability (AZ3146 + Crizotinib; first compound 0.08 µM) of 0.514, a relative viability (AZ3146 + Crizotinib; first compound 0.253 µM) of 0.695 and a relative viability (AZ3146 + Crizotinib; first compound 0.8 µM) of 0.246. It also gave a relative viability (AZ3146 + Crizotinib; first compound 2.53 µM) of 0.192, a relative viability (AZ3146 + Crizotinib; first compound 8 µM) of 0.0532 and a relative viability (AZ3146 + Pemetrexed; first compound 0.08 µM) of 0.166. For the same cell line, the relative viability (AZ3146 + Pemetrexed; first compound 0.253 µM) was 0.205, the relative viability (AZ3146 + Pemetrexed; first compound 0.8 µM) was 0.198 and the relative viability (AZ3146 + Pemetrexed; first compound 2.53 µM) was 0.157. It also gave a relative viability (AZ3146 + Pemetrexed; first compound 8 µM) of 0.148.

Work on EMC-BAC-2 yielded a relative viability (GSK-J4 + Tozasertib; first compound 0.5 µM) of 0.251, a relative viability (GSK-J4 + Tozasertib; first compound 1.581 µM) of 0.248 and a relative viability (GSK-J4 + Tozasertib; first compound 5 µM) of 0.215. For the same cell line, the relative viability (GSK-J4 + Tozasertib; first compound 15.81 µM) was 0.263, the relative viability (GSK-J4 + Tozasertib; first compound 50 µM) was 0.285 and the relative viability (AZ3146 + Navitoclax; first compound 0.08 µM) was 1.07. For the same cell line, the relative viability (AZ3146 + Navitoclax; first compound 0.253 µM) was 1.23, the relative viability (AZ3146 + Navitoclax; first compound 0.8 µM) was 1.25 and the relative viability (AZ3146 + Navitoclax; first compound 2.53 µM) was 1.21. The relative viability (AZ3146 + Navitoclax; first compound 8 µM) was 1.26, the relative viability (AZ3146 + Crizotinib; first compound 0.08 µM) was 0.679 and the relative viability (AZ3146 + Crizotinib; first compound 0.253 µM) was 0.696. The relative viability (AZ3146 + Crizotinib; first compound 0.8 µM) was 0.884, the relative viability (AZ3146 + Crizotinib; first compound 2.53 µM) was 0.763 and the relative viability (AZ3146 + Crizotinib; first compound 8 µM) was 0.731. It also gave a relative viability (AZ3146 + Pemetrexed; first compound 0.08 µM) of 0.379, a relative viability (AZ3146 + Pemetrexed; first compound 0.253 µM) of 0.442 and a relative viability (AZ3146 + Pemetrexed; first compound 0.8 µM) of 0.433. For the same cell line, the relative viability (AZ3146 + Pemetrexed; first compound 2.53 µM) was 0.466 and the relative viability (AZ3146 + Pemetrexed; first compound 8 µM) was 0.411.
